Our source for the mortality values is patent US9212164B2, “Pesticidal compositions and processes related thereto” (Dow AgroSciences LLC, priority 2012, dated 2015).

Assay [1] deals with Cabbage Looper (CL) (Trichoplusia ni). The assay is described as follows: Bioassays on CL, 128-well diet tray assay. The assay is classed as in vivo. The conditions noted are these: 168 h, 50 μg/cm^2 on artificial diet, second instar larvae, five to seven days, 25° C., read-out: CL Rating (percent mortality). How it is done: (§1) Certain molecules disclosed in this document were tested against BAW, CEW and CL using procedures described in the following examples. In the reporting of the results, the “BAW & CEW & CL Rating Table” was used (See Table Section).
Bioassays on CL (Trichoplusia ni)
Bioassays on CL were conducted using a 128-well diet tray assay. One to five second instar CL larvae were placed in each well (3 mL) of the diet tray that had been previously filled with 1 mL of artificial diet to which 50 μg/cm^2 of the test compound (dissolved in 50 μL of 90:10 acetone-water mixture) had been applied (to each of eight wells) and then allowed to dry. Trays were covered with a clear self-adhesive cover, and held at 25° C., 14:10 light-dark for five to seven days. Percent mortality was recorded for the larvae in each well; activity in the eight wells was then averaged. The results are indicated in the table entitled “Table 4: Assay Results Part 2” (See Table Section).

The subject of assay [2] is Beet Armyworm (BAW) (Spodoptera exigua). In words: Bioassays on BAW, 128-well diet tray assay. Conditions: Spodoptera exigua, 168 h; 50 μg/cm^2 on artificial diet, second instar larvae, five to seven days, 25° C.; read-out: BAW Rating (percent mortality). Format: in vivo. As to the method: as §1
Bioassays on BAW (Spodoptera exigua)
Bioassays on BAW were conducted using a 128-well diet tray assay. One to five second instar BAW larvae were placed in each well (3 mL) of the diet tray that had been previously filled with 1 mL of artificial diet to which 50 μg/cm^2 of the test compound (dissolved in 50 μL of 90:10 acetone-water mixture) had been applied (to each of eight wells) and then allowed to dry. Trays were covered with a clear self-adhesive cover, and held at 25° C., 14:10 light-dark for five to seven days. Percent mortality was recorded for the larvae in each well; activity in the eight wells was then averaged. The results are indicated in the tables entitled “Table 3: Assay Results Part 1” and “Table 4: Assay Results Part 2” (See Table Section).

For orientation: mortality means the share of the test organisms that died. In the case of `Cc1cc(C(/C=C/c2ccc(C(=O)NC3(C(=O)NCC(F)(F)F)CC3)c(Br)c2)C(F)(F)F)ccc1F` (stereo not drawn) [Compound P693], the mortality at 50 µg/cm2 in assay [1] and in assay [2] was 50 to 100% each time.
Take `O=C(NC1(C(=O)NCC(F)(F)F)CC1)c1ccc(/C=C/C(c2cc(Cl)c(Cl)c(Cl)c2)C(F)(F)C(F)(F)F)cc1Br` (stereo not drawn) [Compound P1003]: the mortality at 50 µg/cm2 in assay [1] and in assay [2] was 50 to 100% throughout.
On to `O=C(NC1(C(=O)NCC(F)(F)F)CC1)c1ccc(/C=C/C(c2cc(Cl)c(Cl)c(Cl)c2)C(F)(F)C(F)(F)F)cc1C(F)(F)F` (stereo not drawn) [Compound P1005], for which the mortality at 50 µg/cm2 in assay [1] and in assay [2] was 50 to 100% in each case.
As for `O=C(NC1(C(=S)NCC(F)(F)F)CC1)c1ccc(/C=C/C(c2cc(Cl)c(Cl)c(Cl)c2)C(F)(F)F)cc1Br` (stereo not drawn) [Compound P1009], the mortality at 50 µg/cm2 in assay [1] and in assay [2] was 50 to 100% each time.
`O=C(NC1(C(=S)NCC(F)(F)F)CC1)c1ccc(/C=C/C(c2cc(Cl)c(Cl)c(Cl)c2)C(F)(F)F)cc1Cl` (stereo not drawn) [Compound P1010]: the mortality at 50 µg/cm2 in assay [1] and in assay [2] was 50 to 100% throughout.
Consider `Cc1cc(/C=C/C(c2cc(Cl)c(Cl)c(Cl)c2)C(F)(F)F)ccc1C(=O)NC1(C(=S)NCC(F)(F)F)CC1` (stereo not drawn) [Compound P1011], for which the mortality at 50 µg/cm2 in assay [1] and in assay [2] was 50 to 100% each time.
Turning to `O=C(NC1(C(=O)NCC(F)F)CC1)c1ccc(/C=C/C(c2cc(Cl)c(Cl)c(Cl)c2)C(F)(F)F)cc1C(F)(F)F` (stereo not drawn) [Compound P1015], the mortality at 50 µg/cm2 in assay [1] and in assay [2] was 50 to 100% throughout.
Regarding `O=C(NC1(C(=O)NCCF)CC1)c1ccc(/C=C/C(c2cc(Cl)c(Cl)c(Cl)c2)C(F)(F)F)cc1C(F)(F)F` (stereo not drawn) [Compound P1020], the mortality at 50 µg/cm2 in assay [1] and in assay [2] was 50 to 100% throughout.
As for `CCNC(=O)C1(NC(=O)c2ccc(/C=C/C(c3cc(Cl)c(Cl)c(Cl)c3)C(F)(F)F)cc2Br)CC1` (stereo not drawn) [Compound P1023], the mortality at 50 µg/cm2 in assay [1] and in assay [2] was 50 to 100% throughout.
In the case of `CCNC(=O)C1(NC(=O)c2ccc(/C=C/C(c3cc(Cl)c(Cl)c(Cl)c3)C(F)(F)F)cc2C(F)(F)F)CC1` (stereo not drawn) [Compound P1025], the mortality at 50 µg/cm2 in assay [1] and in assay [2] was 50 to 100% each time.
With `CCNC(=O)C1(NC(=O)c2ccc(/C=C/C(c3cc(Cl)c(Cl)c(Cl)c3)C(F)(F)F)cc2C)CC1` (stereo not drawn) [Compound P1026], the mortality at 50 µg/cm2 in assay [1] and in assay [2] was 50 to 100% in each case.
Take `O=C(NC1(C(=O)NCCC(F)(F)F)CC1)c1ccc(/C=C/C(c2cc(Cl)c(Cl)c(Cl)c2)C(F)(F)F)cc1Br` (stereo not drawn) [Compound P1033]: the mortality at 50 µg/cm2 in assay [1] and in assay [2] was 50 to 100% throughout.
For `O=C(NC1(C(=O)NCCC(F)(F)F)CC1)c1ccc(/C=C/C(c2cc(Cl)c(Cl)c(Cl)c2)C(F)(F)F)cc1C(F)(F)F` (stereo not drawn) [Compound P1035], the mortality at 50 µg/cm2 in assay [1] and in assay [2] was 50 to 100% in each case.
In the case of `O=C(NC1(C(=O)NCC(F)(F)F)CC1)c1ccc(/C=C/C(c2cc(Cl)cc(Cl)c2)C(F)(F)C(F)(F)F)cc1Br` (stereo not drawn) [Compound P1043], the mortality at 50 µg/cm2 in assay [1] and in assay [2] was 50 to 100% throughout.
For the molecule `O=C(NC1(C(=O)NCC(F)(F)F)CC1)c1ccc(/C=C/C(c2cc(Cl)cc(Cl)c2)C(F)(F)C(F)(F)F)cc1C(F)(F)F` (stereo not drawn) [Compound P1045], the mortality at 50 µg/cm2 in assay [1] and in assay [2] was 50 to 100% in each case.
Consider `O=C(NC1(C(=O)NCC(F)(F)F)CC1)c1ccc(/C=C/C(c2cc(Cl)cc(Cl)c2)C(F)(F)F)cc1Br` (stereo not drawn) [Compound P1048], for which the mortality at 50 µg/cm2 in assay [1] and in assay [2] was 50 to 100% each time.
On to `O=C(NC1(C(=O)NCC(F)(F)F)CC1)c1ccc(/C=C/C(c2cc(Cl)cc(Cl)c2)C(F)(F)F)cc1C(F)(F)F` (stereo not drawn) [Compound P1050], for which the mortality at 50 µg/cm2 in assay [1] and in assay [2] was 50 to 100% throughout.
As to `O=C(NC1(C(=O)NCC(F)(F)F)CC1)c1ccc(/C=C/C(c2ccc(Cl)c(Cl)c2)C(F)(F)F)cc1Br` (stereo not drawn) [Compound P1093], the mortality at 50 µg/cm2 in assay [1] and in assay [2] was 50 to 100% in each case.
Take `O=C(NC1(C(=O)NCC(F)(F)F)CC1)c1ccc(/C=C/C(c2ccc(Cl)c(Cl)c2)C(F)(F)F)cc1C(F)(F)F` (stereo not drawn) [Compound P1095]: the mortality at 50 µg/cm2 in assay [1] and in assay [2] was 50 to 100% each time.
For `O=C(NC1(C(=O)NCC(F)(F)F)CC1)c1ccc(/C=C/C(c2cc(Br)cc(Br)c2)C(F)(F)F)cc1Br` (stereo not drawn) [Compound P1183], the mortality at 50 µg/cm2 in assay [1] and in assay [2] was 50 to 100% throughout.
Turning to `O=C(NC1(C(=O)NCC(F)F)CC1)c1ccc(/C=C/C(c2cc(Br)cc(Br)c2)C(F)(F)F)cc1Br` (stereo not drawn) [Compound P1193], the mortality at 50 µg/cm2 in assay [1] and in assay [2] was 50 to 100% each time.
`O=C(NC1(C(=O)NCC(F)F)CC1)c1ccc(/C=C/C(c2cc(Br)cc(Br)c2)C(F)(F)F)cc1C(F)(F)F` (stereo not drawn) [Compound P1195]: the mortality at 50 µg/cm2 in assay [1] and in assay [2] was 50 to 100% in each case.
For the molecule `O=C(NC1(C(=O)NCC(F)(F)F)CC1)c1ccc(/C=C/C(c2cc(Br)cc(Br)c2)C(F)(F)F)cc1C(F)(F)F` (stereo not drawn) [Compound P1198], the mortality at 50 µg/cm2 in assay [1] and in assay [2] was 50 to 100% in each case.
Consider `O=C(NC1(C(=O)NCCF)CC1)c1ccc(/C=C/C(c2cc(Br)cc(Br)c2)C(F)(F)F)cc1C(F)(F)F` (stereo not drawn) [Compound P1200], for which the mortality at 50 µg/cm2 in assay [1] and in assay [2] was 50 to 100% throughout.
Consider `O=C(NC1(C(=O)NCCC(F)(F)F)CC1)c1ccc(/C=C/C(c2cc(Br)cc(Br)c2)C(F)(F)F)cc1Br` (stereo not drawn) [Compound P1213], for which the mortality at 50 µg/cm2 in assay [1] and in assay [2] was 50 to 100% each time.
Regarding `Cc1cc(/C=C/C(c2cc(Cl)c(Cl)c(Cl)c2)C(F)(F)F)ccc1C(=O)NC1(C(=O)NCC(F)(F)F)CCC1` (stereo not drawn) [FA1], the mortality at 50 µg/cm2 in assay [1] and in assay [2] was 50 to 100% each time.
For `Cc1cc(C(/C=C/c2ccc(C(=O)NC3(C(=O)NCC(F)(F)F)CC3)c(C(F)(F)F)c2)C(F)(F)F)cc(Cl)c1Cl` (stereo not drawn) [FA3], the mortality at 50 µg/cm2 in assay [1] and in assay [2] was 50 to 100% each time.
With `Cc1cc(C(/C=C/c2ccc(C(=O)NC3(C(=O)NCC(F)(F)F)CC3)c(Br)c2)C(F)(F)F)cc(Cl)c1Cl` (stereo not drawn) [FA4], the mortality at 50 µg/cm2 in assay [1] and in assay [2] was 50 to 100% throughout.
Regarding `O=C(NC1(C(=O)NCC(F)(F)F)CC1)c1ccc(/C=C/C(c2cc(Cl)c(Br)c(Cl)c2)C(F)(F)F)cc1Br` (stereo not drawn) [FA5], the mortality at 50 µg/cm2 in assay [1] and in assay [2] was 50 to 100% each time.
With `O=C(NC1(C(=O)NCC(F)(F)F)CC1)c1ccc(/C=C/C(c2cc(Br)c(Cl)c(Br)c2)C(F)(F)F)cc1Br` (stereo not drawn) [FA6], the mortality at 50 µg/cm2 in assay [1] and in assay [2] was 50 to 100% throughout.
For the molecule `O=C(NC1(C(=O)NCC(F)(F)F)CC1)c1ccc(/C=C/C(c2cc(Br)c(Cl)c(Br)c2)C(F)(F)F)cc1C(F)(F)F` (stereo not drawn) [FA7], the mortality at 50 µg/cm2 in assay [1] and in assay [2] was 50 to 100% in each case.
Consider `O=C(NC1(C(=O)NCC(F)(F)F)CC1)c1ccc(/C=C/C(c2cc(Cl)c(Br)c(Cl)c2)C(F)(F)F)cc1C(F)(F)F` (stereo not drawn) [FA8], for which the mortality at 50 µg/cm2 in assay [1] and in assay [2] was 50 to 100% each time.
With `CC(F)(F)C(/C=C/c1ccc(C(=O)NC2(C(=O)NCC(F)(F)F)CC2)c(C(F)(F)F)c1)c1ccc(Cl)c(Cl)c1` (stereo not drawn) [FA9], the mortality at 50 µg/cm2 in assay [1] and in assay [2] was 50 to 100% throughout.
Take `CCc1cc(Cl)cc(C(/C=C/c2ccc(C(=O)NC3(C(=O)NCC(F)(F)F)CC3)c(C(F)(F)F)c2)C(F)(F)F)c1` (stereo not drawn) [FA10]: the mortality at 50 µg/cm2 in assay [1] and in assay [2] was 50 to 100% in each case.
As for `CC(F)(F)C(/C=C/c1ccc(C(=O)NC2(C(=O)NCC(F)(F)F)CC2)c(Br)c1)c1ccc(Cl)c(Cl)c1` (stereo not drawn) [FA12], the mortality at 50 µg/cm2 in assay [1] and in assay [2] was 50 to 100% throughout.
On to `CCc1cc(Cl)cc(C(/C=C/c2ccc(C(=O)NC3(C(=O)NCC(F)(F)F)CC3)c(Br)c2)C(F)(F)F)c1` (stereo not drawn) [FA13], for which the mortality at 50 µg/cm2 in assay [1] and in assay [2] was 50 to 100% each time.
With `Cc1cc(C(/C=C/c2ccc(C(=O)NC3(C(=O)NCC(F)(F)F)CC3)c(C(F)(F)F)c2)C(F)(F)F)cc(C)c1Cl` (stereo not drawn) [FA14], the mortality at 50 µg/cm2 in assay [1] and in assay [2] was 50 to 100% each time.
Turning to `O=C(NC1(C(=O)NCc2ccc(Cl)cc2)CC1)c1ccc(/C=C/C(c2cc(Cl)c(Cl)c(Cl)c2)C(F)(F)F)cc1Br` (stereo not drawn) [FA16], the mortality at 50 µg/cm2 in assay [1] and in assay [2] was 50 to 100% in each case.
For the molecule `O=C(NC1(C(=O)NC2CCCC2)CC1)c1ccc(/C=C/C(c2cc(Cl)c(Cl)c(Cl)c2)C(F)(F)F)cc1Br` (stereo not drawn) [FA17], the mortality at 50 µg/cm2 in assay [1] and in assay [2] was 50 to 100% throughout.
